Assay results taken from ChEMBL document CHEMBL3108681, “Inhibitors of Tropomyosin-Receptor Kinases (Trk's): Potential Pain Therapy and More” (ACS Med Chem Lett, 2014).

Biological target: High affinity nerve growth factor receptor (Homo sapiens, UniProt P04629)
Assay: Inhibition of TrkA (unknown origin) using fluorescently labeled peptide substrate after 3 hrs

High affinity nerve growth factor receptor, sequence (P04629 whole entry): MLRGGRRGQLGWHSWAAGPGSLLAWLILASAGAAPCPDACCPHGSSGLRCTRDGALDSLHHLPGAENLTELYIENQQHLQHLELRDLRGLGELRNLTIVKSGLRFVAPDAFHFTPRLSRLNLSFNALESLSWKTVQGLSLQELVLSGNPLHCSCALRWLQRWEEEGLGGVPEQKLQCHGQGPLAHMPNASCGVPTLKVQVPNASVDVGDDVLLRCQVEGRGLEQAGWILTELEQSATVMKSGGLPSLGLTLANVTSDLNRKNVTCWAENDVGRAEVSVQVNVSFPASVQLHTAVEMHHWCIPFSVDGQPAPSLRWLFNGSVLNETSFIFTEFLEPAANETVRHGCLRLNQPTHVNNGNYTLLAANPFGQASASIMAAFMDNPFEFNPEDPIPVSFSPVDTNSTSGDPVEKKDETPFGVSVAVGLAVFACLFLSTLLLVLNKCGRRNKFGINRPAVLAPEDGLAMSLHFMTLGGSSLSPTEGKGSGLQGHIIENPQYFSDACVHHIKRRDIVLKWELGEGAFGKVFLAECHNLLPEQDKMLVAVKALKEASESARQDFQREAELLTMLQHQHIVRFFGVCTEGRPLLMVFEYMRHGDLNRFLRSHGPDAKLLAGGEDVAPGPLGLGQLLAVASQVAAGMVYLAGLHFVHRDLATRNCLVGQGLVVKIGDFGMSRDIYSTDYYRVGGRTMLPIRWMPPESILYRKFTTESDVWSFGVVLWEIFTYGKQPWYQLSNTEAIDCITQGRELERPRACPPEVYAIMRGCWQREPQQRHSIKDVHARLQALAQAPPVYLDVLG

**Q.** How did the EC50 turn out when `CC1(C)CN(c2ccc(OC(F)(F)F)cc2)C(=O)N1Cc1cccc(-c2nccs2)c1` was run?
**A.** 1010 nM

**Q.** `CC(C)N(Cc1c[nH]c2ncccc12)C(=O)Nc1ccc(OC(F)(F)F)cc1` was tested. Which EC50 did it give?
**A.** 11.3 nM

**Q.** For `CC(C)N(Cc1c[nH]c2ncccc12)C(=O)Nc1ccc(SC(F)(F)F)cc1`, which EC50 is on record?
**A.** 6.5 nM
